From patent US11926645B2, “Compounds and methods for treatment of viral infections” (priority 2020, dated 2024)
Read-outs that look alike come from different tables or passages of the source.

Assays:
in vitro [1] = conditions: African green monkey
[2] = test system: SARS-CoV-2 SA/2020 B.1.351; assay: microbe, parasite or virus in culture; assay type: cell-based; conditions: Severe acute respiratory syndrome coronavirus 2, Vero C1008
SARS-CoV-2 CA/2020 = assay: microbe, parasite or virus in culture; assay type: cell-based; conditions: Severe acute respiratory syndrome coronavirus 2, Vero C1008
in vitro [3] = assay type: cell-based; conditions: human
Method: The cytotoxicity of compounds was determined in A549-hACE2 cells in the following manner. Compounds (200 nL) were spotted onto 384-well Grenier plates prior to seeding 5000 A549-hACE2 cells/well in a volume of 40 μL culture medium. The plates were incubated at 37° C. for 48 hours with 5% CO2. On day 2, 40 μL of CellTiter-Glo (Promega) was added and mixed 5 times.

SARS-CoV-2-Nluc viruses = assay: microbe, parasite or virus in culture; assay type: cell-based
CES1 = target: T1, CES1 (Homo sapiens, UniProt P23141); assay: CES1/2 stability, CES1; assay type: in vitro ADME; conditions: CES1 Supersome preparation; Supersome preparations, CES 1.5 mg/ml, 2 μM substrate, pH 7.4, 37° C.; read-out: CES1 T1/2
T1 construct: purchased
T1 sequence (P23141 18-567): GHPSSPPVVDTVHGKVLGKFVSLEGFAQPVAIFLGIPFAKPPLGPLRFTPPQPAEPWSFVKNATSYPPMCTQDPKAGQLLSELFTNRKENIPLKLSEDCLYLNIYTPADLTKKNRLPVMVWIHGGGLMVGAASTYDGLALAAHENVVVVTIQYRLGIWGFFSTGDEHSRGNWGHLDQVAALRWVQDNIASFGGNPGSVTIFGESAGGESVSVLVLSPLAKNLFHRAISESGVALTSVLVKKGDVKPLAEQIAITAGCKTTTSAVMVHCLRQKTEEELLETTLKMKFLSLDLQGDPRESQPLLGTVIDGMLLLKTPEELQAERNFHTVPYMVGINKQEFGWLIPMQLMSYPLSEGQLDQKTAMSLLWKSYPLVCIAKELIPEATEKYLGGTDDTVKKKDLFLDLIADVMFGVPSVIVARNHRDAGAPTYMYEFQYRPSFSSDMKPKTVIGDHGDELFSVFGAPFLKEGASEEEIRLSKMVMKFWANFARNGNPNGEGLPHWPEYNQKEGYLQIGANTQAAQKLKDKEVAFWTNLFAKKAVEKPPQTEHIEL
Method: Test compounds or positive control substrates (oseltamivir for CES1 enzymes or procaine for CES2) were incubated with individual Supersome preparations (final CES concentration 1.5 mg/ml) in 0.1 M potassium phosphate buffer (pH 7.4) at 37° C. Substrates were added to a final concentration of 2 μM to initiate the reaction. The final incubation volume was 250 μL. Aliquots were removed after incubation for 0, 10, 30, 60 and 120 min. The reactions were stopped by the addition of IS/Q. Following protein precipitation and centrifugation, 150 μL of supernatant was diluted with an equal volume of water prior to LC-MS analysis. For procaine 150 μL of supernatant was dried down and reconstituted with 250 μL water. All samples were analyzed by LC-MS and the PAR values were used for quantification.

[4] = male, Sprague-Dawley, rat, in vivo, po, 8 mg/kg
[5] = in vivo, po
[6] = in vivo, po; remark: listed apart in the source
[7] = test system: SARS-CoV-2 hCoV-19/Japan/TY7-503/2021 (BZ/2021); assay type: in vivo
in vitro [8] = assay type: in vitro ADME; conditions: s9, pH 7.4
Method: Duplicate aliquots of test compound or positive control substrate (GS-7340) were added to S9 stock diluted with 100 mM potassium phosphate buffer, pH 7.4, to obtain a protein concentration of 2.4 mg/mL. The S9 metabolic reactions were initiated by the addition of the substrates to the S9 reaction mixture to a final concentration of 2 μM. At 2, 12, 25, 45, 65 and 90 min, 25 μL aliquots of the reaction mixture were transferred to plates containing 225 μl of IS/Q solution. After quenching, the plates were centrifuged at 3000×g for 30 minutes, and 150 μl, aliquots of each supernatant were diluted with 150 μl, water. Aliquots (10 μL) of the diluted supernatant were analyzed on a Thermo Q-Exactive mass spectrometer as described below.
Quantification of test compounds and controls was performed by analyte/internal standard peak area ratio (PAR) values measured on a Thermo Q-Exactive mass spectrometer coupled to a Dionex UltiMate 3000 HPLC with a Leap Technologies HTC PAL autosampler. The column used was a Thermo Hypersil GOLD (1.9 μm particle size, 2.1×50 mm). Mobile phase A consisted of 0.1% (v/v) formic acid in water. Mobile phase B consisted of 0.1% (v/v) formic acid in acetonitrile. Elution of analytes was achieved by a series of linear gradients of acetonitrile in water containing 0.1% (v/v) formic acid. The mass spectrometer was calibrated on a weekly basis and mass tolerance of 5 ppm was used.

in vitro [9] = conditions: human, PrestoBlue
in vitro [10] = conditions: hamster
SARS-CoV-2 (WA1) = assay type: in vivo, AGM
SARS-CoV-2 WA1/2020 A = assay: microbe, parasite or virus in culture; assay type: cell-based; conditions: Severe acute respiratory syndrome coronavirus 2, Vero C1008

## CC(C)C(=O)OC[C@H]1O[C@@](C#N)(c2ccc3c(N)ncnn23)[C@H](OC(=O)C(C)C)[C@@H]1OC(=O)C(C)C [Compound 1, (2R,3R,4R,5R)-2-(4-aminopyrrolo[2,1-f][1,2,4]triazin-7-yl)-2-cyano-5-((isobutyryloxy)methyl)tetrahydrofuran-3,4-diyl bis(2-methylpropanoate)]
In vitro [1]
  CC50: > 100 µM
[2]
  EC50: 0.11 µM
SARS-CoV-2 CA/2020
  EC50: 0.21 µM
In vitro [3]
  CC50 at 48 h: > 50 µM
In vitro [3]; host cells A549-ACE2, read-out: CC50, A549-ACE2
  CC50: > 50 µM
SARS-CoV-2-Nluc viruses; Severe acute respiratory syndrome coronavirus 2, 48 h, read-out: SARS-CoV2 EC50
  EC50: 2.7 µM
SARS-CoV-2-Nluc viruses; Severe acute respiratory syndrome coronavirus 2, host cells A549-ACE2, read-out: EC50, WA1/2020-nano luciferase
  EC50: 0.98 µM
CES1
  half-life at 2 μM: < 1 min
[4]
  Cmax: 5.83 µM
[5]; ferret, 30 mg/kg
  Compound 1 concentration transiently observed: ^aapproximately 10 nM Compound 1 transiently observed in first two hours.
[5]
  oral bioavailability (in words): excellent oral bioavailability
[5]; 30 mg/kg
  Cmax: 15.8 ± 4.7 µM
[6]
  anabolism to bioactive Reference Compound B (in words): efficient anabolism to bioactive Reference Compound B
[7]; […], 5.5 days after initiation of co-housing
  Infectious viral particles in nasal turbinates of contact animals: absent
[7]; […], source animals oral 10 mg/kg b.i.d.
  Shedding of infectious particles or viral RNA by contacts of treated source ferrets: None of the contacts of treated source ferrets shed infectious particles or viral RNA at any time
[7]; in vivo
  Viral RNA in nasal turbinates of the contact animals: < 10^5 copies/g nasal turbinate
[7]; in vivo, po, 10 mg/kg
  Lowering of viral RNA copies in nasal lavages and turbinates: over three orders of magnitude
  Shed virus burden (nasal lavage): undetectable
  Tissue titers (nasal turbinates): undetectable
In vitro [8]
  half-life at 2 μM: 2 min
In vitro [9]; CC50, DF2 HAE, primary diseased (asthma) HAE donor DF2, 72 hours
  CC50: 86 µM
In vitro [9]; CC50, F2 HAE, primary HAE donor F2, 72 hours
  CC50: 43.8 µM
In vitro [9]; CC50, F3 HAE, primary HAE donor F3, 72 hours
  CC50: 43.8 µM
In vitro [9]; CC50, M2 HAE, primary HAE donor M2, 72 hours
  CC50: 39.7 µM
In vitro [9]; CC50, M6 HAE, primary HAE donor M6, 72 hours
  CC50: 92.3 µM
In vitro [10]
  CC50: > 100 µM
SARS-CoV-2 (WA1); AGMs, PO 60 or 120 mg/kg QD, days 2-6
  Infectious SARS-CoV-2 titers versus vehicle: trended lower than the vehicle group
SARS-CoV-2 (WA1); AGMs, PO 60 or 120 mg/kg QD, terminal day 6
  Viral RNA loads in lower lung tissue versus vehicle: trended lower
SARS-CoV-2 (WA1); in vivo, po
  mean SARS-CoV-2 gRNA in BALF versus vehicle: significantly reduced
SARS-CoV-2 (WA1); in vivo, po, 60 mg/kg
  SARS-CoV-2 gRNA in BALF versus vehicle: significantly lower than vehicle animals
SARS-CoV-2 WA1/2020 A
  EC50: 0.73 µM
